Experimental data published in patent US20230416270A1, “NOVEL CAMPTOTHECIN DERIVATIVE, COMPOSITION COMPRISING SAME AND USE THEREOF” (priority 2020, published 2023).
Like-named read-outs stand apart in the source and are kept apart here. Numbered stars: 1 amine (or outer) side, 2 acyl side, 3 side chain; on linkers, the order of the positions; unused ones are H or OH. Square brackets hold non-standard residues; d marks the D form. Peptide text beside a SMILES is read from it. * marks the point of attachment. Exatecan = CC[C@@]1(O)C(=O)OCc2c1cc1n(c2=O)Cc2c-1nc1cc(F)c(C)c3c1c2[C@@H](N*)CC3; Hexanoyl(6-maleimido) = O=C1C=CC(=O)N1CCCCCC(=O)*; NHCH2OCH2CO = O=C(COCN[*:1])[*:2]

Assays:
[1] = system: SK-BR-3 cells; assay: Assay for antiproliferative activity against SK-BR-3 cells (CellTiter-Lumi, ATP content); type: cell-based; conditions: for IC50: read-out: IC50 (nM), antiproliferative activity against SK-BR-3 cells
Procedure: The activity of the antibody-drug conjugate of the present invention can be determined by the assay for the in-vitro antiproliferative activity against SK-BR-3 cells of a camptothecin derivative as a small molecule toxin.
SK-BR-3 cells were seeded into a 384-well plate (Fisher 142762) at 3000 cells per well. The next day, serially diluted compounds were added, and 72 hours after the addition, CellTiter-Lumi (Beyotime C0068XL) was added to measure the ATP content in the cells. The growth of the cells was evaluated, and relative IC50 values of the compounds against cell growth was calculated.

[2] = system: SK-BR-3 cells with high expression of HER2; assay: cells; type: cell-based; conditions: Homo sapiens, SK-BR-3, 144 h, read-out: IC50 (nM), antiproliferative activity of the antibody-drug conjugates against SK-BR-3 cells
Description: SK-BR-3 cells with high expression of HER2 were selected as cell strains for in-vitro activity detection in the experiment and were used for evaluating the dose-effect relationship of the antibody-drug conjugates (ADCs) of the present invention on cell killing.

[3] = Homo sapiens, SK-BR-3, 72 hours after compound addition, relative IC50

Row | Structure (SMILES) | IC50 ([1]; Homo sapiens, SK-BR-3, 72 h) [nM] | further results
1 | CCc1c(F)cc2nc3c(c4c2c1SC[C@@H]4NC(=O)CO)Cn1c-3cc2c(c1=O)COC(=O)[C@]2(O)CC [Compound 34] | 5.84 | –
2 | CC[C@@]1(O)C(=O)OCc2c1cc1n(c2=O)Cc2c-1nc1cc(F)c(OC)c3c1c2[C@@H](NC(=O)CO)CS3 [Compound 35] | 6.53 | –
3 | CC[C@@]1(O)C(=O)OCc2c1cc1n(c2=O)Cc2c-1nc1cc(F)c(C)c3c1c2C(O)CS3 (some centres unmarked) [Compound 20] | 5.83 | –
4 | CC[C@@]1(O)C(=O)OCc2c1cc1n(c2=O)Cc2c-1nc1cc(F)c(C)c3c1c2[C@@H](NC(=O)[C@H](C)O)CS3 [Compound 44] | 6.29 | –
5 | CC[C@@]1(O)C(=O)OCc2c1cc1n(c2=O)Cc2c-1nc1cc(F)c(C)c3c1c2[C@@H](N)CC3 [Exatecan, reference compound] | 5.35 | IC50 [2]: 0.73 nM
6 | CC[C@@]1(O)C(=O)OCc2c1cc1n(c2=O)Cc2c-1nc1cc(F)c(C)c3c1c2[C@H](N)CS3 [Compound 1-1] | 5.81 | –
7 | CC[C@@]1(O)C(=O)OCc2c1cc1n(c2=O)Cc2c-1nc1cc(F)c(C)c3c1c2C(N)CS3 (stereo partly drawn) [Compound 1, (9S)-1-amino-9-ethyl-5-fluoro-9-hydroxy-4-methyl-1,9,12,15-tetrahydro-13H-pyrano[3′, 4′:6,7]indolizino[1,2-b]thiopyrano[4,3,2-de]quinoline-10,13(2H)-dione] | 2.98 | –
8 | CC[C@@]1(O)C(=O)OCc2c1cc1n(c2=O)Cc2c-1nc1cc(F)c(C)c3c1c2[C@@H](NC(=O)CO)CO3 [Compound 41] | 6.47 | –
9 | CC[C@@]1(O)C(=O)OCc2c1cc1n(c2=O)Cc2c-1nc1cc(F)c(OC)c3c1c2[C@@H](N)CS3 [Compound 4-2] | 2.74 | –
10 | CC[C@@]1(O)C(=O)OCc2c1cc1n(c2=O)Cc2cc3c(CN(C)C)c(O)ccc3nc2-1 [Topotecan, reference compound] | – | IC50 [1, 3]: 58.3 nM
11 | CC[C@@]1(O)C(=O)OCc2c1cc1n(c2=O)Cc2c-1nc1cc(F)c(C)c3c1c2[C@@H](NC)CS3 [Compound 14-2] | 4.13 | –
12 | CC[C@@]1(O)C(=O)OCc2c1cc1n(c2=O)Cc2c-1nc1cc(F)c(C)c3c1c2[C@@H](NC(=O)[C@H](O)C1CC1)CS3 [Compound 49] | 7.32 | –
13 | CC[C@@]1(O)C(=O)OCc2c1cc1n(c2=O)Cc2c-1nc1cc(F)c(C)c3c1c2[C@@H](N)CO3 [Compound 7-2] | 2.68 | –
14 | Cc1c(F)cc2nc3c(c4c2c1SC[C@@H]4NC(=O)CO)Cn1c-3cc2c(c1=O)COC(=O)[C@]2(O)CCF [Compound 39] | 4.78 | –
15 | CC[C@@]1(O)C(=O)OCc2c1cc1n(c2=O)Cc2c-1nc1cc(F)c(C)c3c1c2[C@@H](NC(=O)[C@@H](O)C1CC1)CS3 [Compound 48] | 6.73 | –
16 | CCc1c(F)cc2nc3c(c4c2c1SC[C@@H]4N)Cn1c-3cc2c(c1=O)COC(=O)[C@]2(O)CC [Compound 3-2] | – | IC50 [1, 3]: 2.85 nM
17 | CC[C@@]1(O)C(=O)OCc2c1cc1n(c2=O)Cc2c-1nc1cc(F)c(C)c3c1c2[C@@H](N)CS3 [Compound 1-2] | 1.73 | fold more active than exatecan ([1]; SK-BR-3 antiproliferative activity, relative to exatecan): 2 fold
18 | CC[C@@]1(O)C(=O)OCc2c1cc1n(c2=O)Cc2c-1nc1cc(F)c(C)c3c1c2[C@@H](NC(=O)COCNC(=O)CNC(=O)[C@H](Cc1ccccc1)NC(=O)CNC(=O)CNC(=O)CCCCCN1C(=O)C=CC1=O)CC3 [Deruxtecan, reference compound] ({Hexanoyl(6-maleimido)}-GGFG[NHCH2OCH2CO]-Exatecan) | – | IC50 ([1]; SK-BR-3, 72 hours after compound addition, relative IC50): 13.6 nM
